# Laboratory results published in patent US10717716B2, “1,3,4-oxadiazole derivative compounds as histone deacetylase 6 inhibitor, and the pharmaceutical composition comprising the same” (Chong Kun Dang Pharmaceutical Corp., priority 2015, dated 2020).
# Target: T1, human recombinant HDAC6 (Homo sapiens, UniProt Q9UBN7)
# T1 construct: purchased Calbiochem 382180
# T1 sequence (Q9UBN7 1-1215): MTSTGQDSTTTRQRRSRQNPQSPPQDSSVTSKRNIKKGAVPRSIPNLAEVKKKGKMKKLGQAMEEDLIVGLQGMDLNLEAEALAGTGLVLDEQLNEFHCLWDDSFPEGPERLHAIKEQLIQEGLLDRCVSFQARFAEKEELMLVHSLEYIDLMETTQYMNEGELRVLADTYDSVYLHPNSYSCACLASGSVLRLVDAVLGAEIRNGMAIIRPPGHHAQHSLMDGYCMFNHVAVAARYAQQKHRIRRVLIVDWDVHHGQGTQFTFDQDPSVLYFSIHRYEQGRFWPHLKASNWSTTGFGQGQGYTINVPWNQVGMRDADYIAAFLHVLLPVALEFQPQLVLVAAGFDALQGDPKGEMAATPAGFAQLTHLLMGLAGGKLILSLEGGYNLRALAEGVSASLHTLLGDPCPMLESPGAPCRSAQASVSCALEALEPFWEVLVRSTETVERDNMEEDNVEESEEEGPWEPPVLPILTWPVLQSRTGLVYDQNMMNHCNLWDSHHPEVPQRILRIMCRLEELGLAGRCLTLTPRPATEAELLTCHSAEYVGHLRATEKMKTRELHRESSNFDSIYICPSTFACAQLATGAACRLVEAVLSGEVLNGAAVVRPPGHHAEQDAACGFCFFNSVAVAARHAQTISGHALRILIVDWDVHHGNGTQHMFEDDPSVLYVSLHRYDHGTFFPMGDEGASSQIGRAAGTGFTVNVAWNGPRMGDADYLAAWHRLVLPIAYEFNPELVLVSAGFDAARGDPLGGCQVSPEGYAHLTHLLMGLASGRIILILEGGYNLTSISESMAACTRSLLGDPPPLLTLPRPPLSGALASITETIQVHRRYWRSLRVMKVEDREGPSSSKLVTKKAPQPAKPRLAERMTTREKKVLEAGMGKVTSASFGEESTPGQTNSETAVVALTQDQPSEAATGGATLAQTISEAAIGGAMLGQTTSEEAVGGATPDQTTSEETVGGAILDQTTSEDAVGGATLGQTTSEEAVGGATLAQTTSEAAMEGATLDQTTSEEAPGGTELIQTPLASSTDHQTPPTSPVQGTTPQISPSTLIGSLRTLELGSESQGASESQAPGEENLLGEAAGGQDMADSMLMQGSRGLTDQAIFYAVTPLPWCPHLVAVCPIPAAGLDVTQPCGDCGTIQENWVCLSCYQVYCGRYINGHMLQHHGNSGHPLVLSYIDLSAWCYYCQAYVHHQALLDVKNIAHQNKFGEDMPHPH
# Assay: HDAC6 enzyme activity inhibition assay (HDAC Fluorimetric Drug Discovery Kit)
# Assay type: biochemical
# Settings: for HDAC6 selectivity (fold): HDAC6 over HDAC1; for IC50: human recombinant HDAC6, same protocol as HDAC1, read-out: HDAC6
# Procedure, shortened: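 Human recombinant HDAC1 or HDAC6 (0.3 μg) reacted with 10 μM Fluor de Lys-SIRT1 substrate and 5-fold compound dilutions for 60 min at 30 °C. Developer II added for 30 min, fluorescence read at Ex 360/Em 460; IC50 calculated from the readings.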
Structure (SMILES),HDAC6 selectivity (fold),IC50 [nM]
"O=C(N1CCS(=O)(=O)CC1)N(Cc1ccc(-c2nnc(C(F)F)o2)cc1)c1cccc(-c2ccccc2)c1 [Compound 21502, N-([1,1′-biphenyl]-3-yl)-N-(4-(5-(difluoromethyl)-1,3,4-oxadiazol-2-yl)benzyl)thiomorpholine-4-carboxamide 1,1-dioxide]",36,279
"O=C(N1CCS(=O)(=O)CC1)N(Cc1ccc(-c2nnc(C(F)F)o2)cc1F)c1ccc(-c2ccncc2)cc1 [Compound 21520, N-(4-(5-(difluoromethyl)-1,3,4-oxadiazol-2-yl)-2-fluorobenzyl)-N-(4-(pyridin-4-yl)phenyl)thiomorpholine-4-carboxamide 1,1-dioxide]",159,63
"CN1CC2(CCN(C(=O)N(Cc3ccc(-c4nnc(C(F)(F)F)o4)cc3)c3ccccc3)CC2)C1 [Compound 21420, 2-Methyl-N-phenyl-N-(4-(5-(trifluoromethyl)-1,3,4-oxadiazol-2-yl)benzyl)-2,7-diazaspiro[3.5]nonane-7-carboxamide]",143,70
"COc1ccc(N(Cc2ccc(-c3nnc(C(F)F)o3)cc2)C(=O)N2CCN(C3COC3)CC2)cc1 [Compound 21951, N-(4-(5-(Difluoromethyl)-1,3,4-oxadiazol-2-yl)benzyl)-N-(4-methoxyphenyl)-4-(oxetan-3-yl)piperazine-1-carboxamide]",26,391
"COc1cccc(N(Cc2ccc(-c3nnc(C(F)F)o3)cc2)C(=O)N2CCS(=O)(=O)CC2)c1 [Compound 21475, N-(4-(5-(difluoromethyl)-1,3,4-oxadiazol-2-yl)benzyl)-N-(3-methoxyphenyl)thiomorpholine-4-carboxamide 1,1-dioxide]",145,69
"COc1cc(-c2nnc(C(F)(F)F)o2)ccc1CN(C(=O)N1CCOCC1)c1ccccc1 [Compound 21343, N-(2-methoxy-4-(5-(trifluoromethyl)-1,3,4-oxadiazol-2-yl)benzyl)-N-phenylmorpholine-4-carboxamide]",1,10700
"O=C(N1CCS(=O)(=O)CC1)N(Cc1ccc(-c2nnc(C(F)(F)F)o2)cc1)c1ccc(F)cc1F [Compound 21433, N-(2,4-difluorophenyl)-N-(4-(5-(trifluoromethyl)-1,3,4-oxadiazol-2-yl)benzyl)thiomorpholine-4-carboxamide 1,1-dioxide]",172,58
"O=C(N1CCS(=O)(=O)CC1)N(Cc1ccc(-c2nnc(C(F)F)o2)cc1)c1cccc(C(F)(F)F)n1 [Compound 21457, N-(4-(5-(difluoromethyl)-1,3,4-oxadiazol-2-yl)benzyl)-N-(6-(trifluoromethyl)pyridin-2-yl)thiomorpholine-4-carboxamide 1,1-dioxide]",53,190
"O=C(N1CCOCC1)N(Cc1ccc(Cc2nnc(C(F)(F)F)o2)cc1)c1ccccc1 [Compound 21355, N-phenyl-N-(4-((5-(trifluoromethyl)-1,3,4-oxadiazol-2-yl)methyl)benzyl)morpholine-4-carboxamide]",1,6910
"CCC(=O)N1CCN(C(=O)N(Cc2ccc(-c3nnc(C(F)(F)F)o3)cc2)c2ccccc2)CC1 [Compound 21366, N-phenyl-4-propionyl-N-(4-(5-(trifluoromethyl)-1,3,4-oxadiazol-2-yl)benzyl)piperazine-1-carboxamide]",79,126
"O=C(N1CC2(COC2)C1)N(Cc1ccc(-c2nnc(C(F)F)o2)cc1F)c1ccccc1 [Compound 21522, N-(4-(5-(difluoromethyl)-1,3,4-oxadiazol-2-yl)-2-fluorobenzyl)-N-phenyl-2-oxa-6-azaspiro[3.3]heptane-6-carboxamide]",455,22
"O=C(CN1CCN(CCNC(=O)N(Cc2ccc(-c3nnc(C(F)F)o3)cc2F)c2ccccc2)CC1)N1CCOCC1 [Compound 21984, 1-(4-(5-(Difluoromethyl)-1,3,4-oxadiazol-2-yl)-2-fluorobenzyl)-3-(2-(4-(2-morpholino-2-oxoethyl)piperazin-1-yl)ethyl)-1-phenylurea]",107,93
"CC(C)(C)OC(=O)N1CC2(CCN(C(=O)N(Cc3ccc(-c4nnc(C(F)(F)F)o4)cc3)c3ccccc3)CC2)C1 [Compound 21416, Ten-butyl 7-(phenyl(4-(5-(trifluoromethyl)-1,3,4-oxadiazol-2-yl)benzyl)carbamoyl)-2,7-diazaspiro[3.5]nonane-2-carboxylate]",6,1590
"COc1cccc(N(Cc2ccc(-c3nnc(C(F)F)o3)cc2F)C(=O)N2CCN(C)CC2)c1 [Compound 21473, N-(4-(5-(difluoromethyl)-1,3,4-oxadiazol-2-yl)-2-fluorobenzyl)-N-(3-methoxyphenyl)-4-methylpiperazine-1-carboxamide]",313,32
"O=C(N1CCOCC1)N(Cc1ccccc1)Cc1ccc(-c2nnc(C(F)(F)F)o2)cc1 [Compound 21462, N-benzyl-N-(4-(5-(trifluoromethyl)-1,3,4-oxadiazol-2-yl)benzyl)morpholine-4-carboxamide]",7,1420
"Cc1ccc(N(Cc2ccc(-c3nnc(C(F)F)o3)cn2)C(=O)N2CCN(C)CC2)cc1 [Compound 21598, N-((5-(5-(difluoromethyl)-1,3,4-oxadiazol-2-yl)pyridin-2-yl)methyl)-4-methyl-N-(p-tolyl)piperazine-1-carboxamide]",238,42
"O=C(N1CCOCC1)N(Cc1ccc(-c2nnc(C(F)F)o2)cc1F)c1nncs1 [Compound 21981, N-(4-(5-(difluoromethyl)-1,3,4-oxadiazol-2-yl)-2-fluorobenzyl)-N-(1,3,4-thiadiazol-2-yl) morpholine-4-carboxamide]",13,758
"O=C(N1CC2(COC2)C1)N(Cc1ccc(-c2nnc(C(F)F)o2)cn1)c1ccccc1 [Compound 21566, N-((5-(5-(difluoromethyl)-1,3,4-oxadiazol-2-yl)pyridin-2-yl)methyl)-N-phenyl-2-oxa-6-azaspiro[3.3]heptane-6-carboxamide]",526,19
"O=C(N1CCN(C2COC2)CC1)N(Cc1ccc(-c2nnc(C(F)F)o2)cn1)c1ccc(Cl)cc1 [Compound 21947, N-(4-Chlorophenyl)-N-((5-(5-(difluoromethyl)-1,3,4-oxadiazol-2-yl)pyridin-2-yl)methyl)-4-(oxetan-3-yl)piperazine-1-carboxamide]",112,90
"O=C(N1CCS(=O)(=O)CC1)N(Cc1ccc(-c2nnc(C(F)(F)F)o2)cc1)c1cccc(C(F)(F)F)n1 [Compound 21456, N-(4-(5-(trifluoromethyl)-1,3,4-oxadiazol-2-yl)benzyl)-N-(6-(trifluoromethyl)pyridin-2-yl)thiomorpholine-4-carboxamide 1,1-dioxide]",17,578
